Values after ≈ are worked out from the molar mass of the structure shown.
How the values were obtained:
[1] = test system: poacic acid-resistant mutant (SUR1); experiment: Poacic acid-resistant mutant (PAr) with SNP in SUR1; format: cell-based, Saccharomyces cerevisiae
Procedure: Agar containing 500 μg/mL poacic acid was inoculated with ˜1 million cells of yeast (control strain). After 1 wk, two colonies were found growing on the agar. Single-colony isolates were obtained and found to be resistant to poacic acid. For whole-genome sequencing, single-colony isolates of poacic acid-resistant mutant, the caspofungin-resistant mutant, and the control strain (WT) were grown in triplicate 200-μL cultures and pooled for genomic DNA extraction (Epicentre MasterPure Yeast Kit; MPY80200). The genomic DNA was prepared for Illumina whole-genome sequencing using the Illumina TruSeqKkit (FC-121-3001) and sequenced by 150-bp paired-end reads on the MiSeq platform.
To determine mutations in the drug-resistant mutants, read quality analysis was performed using FastQC (www.bioinformatics.babraharm.ac.uk/projects/fastqc/). Short reads were examined for quality and trimmed at the 3′ end when average base quality in a 3-nt window fell below Q30. Short reads were mapped to the standard S. cerevisiae reference genome, strain S288c (obtained from the National Center for Biotechnology Information RefSeq repository), using Burrows-Wheeler Alignment (BWA version 0.6.2) (Li et al. 2009) using the default parameters, with the exception of the fraction of missing alignments threshold, which was set at 0.08 (−n in bwa aln). […]

[2] = test system: yeast deletion collection; experiment: Chemical genomic analysis of yeast deletion collection; format: cell-based, Saccharomyces cerevisiae
Procedure: Chemical genomic analysis of poacic acid was performed as described previously (Parsons et al. 2006, Fung et al. 2014). The tested yeast deletion collection had ˜4,000 strains using the genetic background described by Andrusiak (Andrusiak 2012). The optimal inhibitory concentration of poacic acid for chemical genomic profiling [70-80% growth vs. solvent control in yeast extract-peptone-galactose medium after 24 h of growth] was determined using an eight-point dose curve. A concentration of 88 μg/mL inhibited growth within this range; 200-μL cultures of the pooled deletion collection of S. cerevisiae were grown with 88 μg/mL poacic acid (n=3) or a DMSO control in triplicate for 48 h at 30° C. Genomic DNA was extracted using the Epicentre MasterPure Yeast DNA Purification Kit. Mutant-specific molecular barcodes were amplified with specially designed multiplex primers (Smith et al. 2009). The barcodes were sequenced using an Illumina MiSeq. Replicates of each condition, poacic acid (n=3) or DMSO (n=2), were sequenced. The barcode counts for each yeast deletion mutant in the presence of poacic acid were compared to the DMSO control conditions to determine sensitivity or resistance of individual strains (the chemical genetic interaction score) (Parsons et al. 2006). To determine a P value for each top sensitive and resistant mutant, we used the EdgeR package (Robinson et al. 2014, Robinson et al. 2010). A Bonferroni-corrected hypergeometric distribution test was used to search for significant enrichment of GO terms among the top 10 sensitive and resistant deletion mutants (Boyle et al. 2004). To understand the pathways that were most affected by poacic acid, we developed a protein complex/pathway score based on the summation of the z scores for each complex/pathway (Pathway z score). Correlation of the chemical genomic profile of poacic acid with the yeast genetic interaction network was performed as previously described (Costanzo et al. 2010).
For each complex, the chemical genetic interaction score of the genes in the complex with the compound was summed. To determine significance, the expectations for such a sum for random sets of genes of equal size were calculated. The random sets of equal size were expected to have means equal to the background mean and SDs equal to the background SD/sqrt(n). With this information, a z score (number of SDs from the expected mean) for each complex or pathway can be computed: Pathway z-score=(Σ−μ)/(σ×sqrt(n)), where Σ=sum of the chemical genetic interaction scores of genes in the complex, μ=mean of the chemical genetic interaction scores of the compounds with all genes studies, σ=SD of chemical genetic interaction scores of the compounds with all genes in the study, and n=size of the complex. Multivariate Morphological Analysis

β-1,3-glucan synthase = test system: T1, β-1,3-glucan synthase; experiment: β-1,3-glucan synthase activity in the membrane fraction; format: biochemical, S. cerevisiae BY4741; settings: 25° C., 30 min
T1 construct: membrane fraction was prepared from S. cerevisiae BY4741
Procedure: After the membrane fraction was prepared from S. cerevisiae BY4741 as described previously (n=3) (Abe et al. 2001), β-1,3-glucan synthase activity was measured as described previously (n=3) (Inoue et al. 1995) with slight modification. Briefly, 20 μL membrane fraction (˜70 μg total protein) was added to a reaction mixture (final volume of 100 μL) containing 50 mM Tris·HCl, pH 7.5, 10 mM potassium fluoride, 1 mM EDTA, 0.2 mM UDP-Glc (with 89 Bq UDP-[Glucose-14C]; NEC403; PerkinElmer), and different concentrations of poacic acid (1.25, 2.5, 5, 10, 20, 40, 80, 160, or 320 μg/mL). The reaction mixture was incubated at 25° C. for 30 min and stopped by the addition of ethanol. To trap reaction product (β-1,3-glucan polymer), the reaction mixture was filtered through the membrane filter (mixed cellulose esters; 0.2 μm in pore size; ADVANTEC), washed one time with 2 mL distilled water, and dried at room temperature. After addition of scintillation mixture (Econofluor-2; PerkinElmer), radioactivity was measured by a scintillation counter (LSC-6100; Aloka) Inhibition curves and IC50 values were determined using R software (ver. 3.0.1) by sigmoidal curve fitting with the glm function.

## COc1cc(/C=C/c2cc(/C=C/C(=O)O)cc(OC)c2O)ccc1O [poacic acid, (E)-4-Hydroxy-3-{2-[(E)-4-hydroxy-3-methoxystyryl]}-5-methoxycinnamic acid]
[1]; PAr mutant with SNP in SUR1
  resistance compared with the control strain: increased resistance
[1]; spontaneous chain-termination mutant in SUR1, agar with 500 μg poacic acid/mL
  colony formation on agar: able to form colonies
[2]; 88 μg/mL, yeast extract-peptone-galactose medium, 24 h
  growth vs. solvent control: 70-80%
[2]; ACK1 deletion mutant, sensitive
  Z Score: ACK1 −9.09 1.39E
[2]; ALG6 deletion mutant, sensitive
  Z Score: ALG6 −8.30 1.82E
[2]; BCK1 deletion mutant, sensitive
  Z Score: BCK1 −12.91 2.58E
[2]; CSG2 deletion mutant, resistant
  Z Score: CSG2 5.89 1.57E
[2]; CWH43 deletion mutant, sensitive
  Z Score: CWH43 −10.99 7.98E
[2]; DFG5 deletion mutant, resistant
  Z Score: DFG5 5.51 1.34E
[2]; DSF2 deletion mutant, resistant
  Z Score: DSF2 5.32 6.68E
[2]; EMC4 deletion mutant, sensitive
  Z Score: EMC4 −7.92 1.90E
[2]; ERG2 deletion mutant, sensitive
  Z Score: ERG2 −7.80 4.76E
[2]; FYV8 deletion mutant, sensitive
  Z Score: FYV8 −9.11 1.11E
[2]; LCL1 deletion mutant, resistant
  Z Score: LCL1 5.79 4.51E
[2]; NBP2 deletion mutant, resistant
  Z Score: NBP2 5.43 1.57E
[2]; NUP170 deletion mutant, resistant
  Z Score: NUP170 5.33 2.79E
[2]; PIB2 deletion mutant, resistant
  Z Score: PIB2 4.96 2.79E
[2]; PKC pathway (most sensitive pathway), 88 μg/mL
  Pathway z score: −7.85
[2]; RGD1 deletion mutant, sensitive
  Z Score: RGD1 −10.16 1.21E
[2]; ROM2 deletion mutant, sensitive
  Z Score: ROM2 −9.47 8.88E
[2]; RPL21B deletion mutant, resistant
  Z Score: RPL21B 4.81 1.11E
[2]; RTS1 deletion mutant, resistant
  Z Score: RTS1 5.39 6.26E
[2]; SNG1 deletion mutant, sensitive
  Z Score: SNG1 −7.91 8.96E
[2]; SUR1 deletion mutant, resistant
  Z Score: SUR1 5.21 5.34E
β-1,3-glucan synthase
  IC50 (β-1,3-glucan synthase activity in vitro): 31 µg/mL (≈ 90.6 µM)

From US11985974B2, “Antimicrobial ferulic acid derivatives and uses thereof” (WISCONSIN ALUMNI RESEARCH FOUNDATION, priority 2014, dated 2024)
